According to ChEMBL document CHEMBL1130940, “Combinatorial chemistry: from peptides and peptidomimetics to small organic and heterocyclic compounds” (Bioorg Med Chem Lett, 1998):

Biological target: Sigma non-opioid intracellular receptor 1 (Homo sapiens, UniProt Q99720)
Test: Binding affinity for [3H]- pentazocine at sigma opioid receptor

Sigma non-opioid intracellular receptor 1, sequence (Q99720 whole entry): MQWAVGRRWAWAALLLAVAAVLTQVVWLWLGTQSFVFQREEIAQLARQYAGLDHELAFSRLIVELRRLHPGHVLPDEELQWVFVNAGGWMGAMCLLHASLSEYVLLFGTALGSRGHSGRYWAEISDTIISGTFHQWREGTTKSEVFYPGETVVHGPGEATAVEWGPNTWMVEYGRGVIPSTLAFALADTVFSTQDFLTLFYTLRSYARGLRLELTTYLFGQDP

Ki [µM] | SMILES
0.064 | CCC[C@H](C(=O)NCc1ccccc1)N1C(=O)[C@H](CCCCN)N(Cc2ccccc2)C1=O
0.254 | NCCCC[C@@H]1C(=O)N([C@@H](CC2CCCCC2)C(N)=O)C(=O)N1Cc1ccccc1
0.08 | CCC[C@H](C(=O)NCc1ccccc1)N1C(=O)[C@@H](CCCCN)N(Cc2ccccc2)C1=O
4.61 | CC[C@H](C)[C@H](C(=O)NCc1ccccc1)N1C(=O)[C@@H](CCCCCN)N(Cc2ccccc2)C1=O
0.333 | CC[C@H](C)[C@H](C(=O)NCc1ccccc1)N1C(=O)[C@@H](CCCN)N(Cc2ccccc2)C1=O
3.63 | NCCCCC[C@@H]1C(=O)N([C@H](CC2CCCCC2)C(N)=O)C(=O)N1Cc1ccccc1
0.062 | CC[C@H](C)[C@@H](C(=O)NCc1ccccc1)N1C(=O)[C@@H](CCCCN)N(Cc2ccccc2)C1=O
0.189 | NCCCC[C@@H]1C(=O)N([C@H](CC2CCCCC2)C(N)=O)C(=O)N1Cc1ccccc1
0.125 | CC[C@@H](C)[C@H](C(=O)NCc1ccccc1)N1C(=O)[C@@H](CCCCN)N(Cc2ccccc2)C1=O
0.406 | NCCC[C@H]1C(=O)N([C@H](CC2CCCCC2)C(N)=O)C(=O)N1Cc1ccccc1
2.42 | CCC[C@H](C(=O)NCc1ccccc1)N1C(=O)[C@@H](CCCCCN)N(Cc2ccccc2)C1=O
0.435 | CCC[C@H](C(=O)NCc1ccccc1)N1C(=O)[C@@H](CCCN)N(Cc2ccccc2)C1=O
